Patent US20080118576A1, “PREDICTION OF AN AGENT'S OR AGENTS' ACTIVITY ACROSS DIFFERENT CELLS AND TISSUE TYPES” (priority 2006, published 2008)

Assays:
[1] = system: 40 human urothelial (bladder) cancer cell lines; assay: Alamar Blue growth inhibition of 40 bladder cancer cell lines, single drugs, 72 hours; assay type: cell-based; conditions: for criterion dose (CR): minimum dose at which at least 25% of cell lines showed growth inhibition >50%; for number of resistant cell lines / number of sensitive cell lines: of 40 bladder cancer cell lines; for number of sensitive cell lines: log10(GI50) ≤ CR
Method: The human bladder cancer cell lines and the respective growth conditions used in this study have been previously described (6, 7). Cisplatin was purchased from Sigma (St. Louis, Mo.), dissolved in Dulbecco's phosphate-buffered saline, and aliquoted in 1 mg/ml stocks. Paclitaxel was purchased from Sigma (St. Louis, Mo.), dissolved in Dimethyl Sulphoxide (DMSO), and aliquoted in 1 mM stocks. Gemcitabine was purchased from the University of Virginia Medical Center Pharmacy, dissolved in PBS, and aliquoted in 0.1 M stocks. Cell lines were maintained in appropriate media, in a humidified atmosphere containing 5% CO2 in air, except CRL2169 (SW780) which requires no CO2 for its growth. Cell lines were subcultured in an aqueous solution of 0.05% trypsin (Difco, 1:250) and 0.016% EDTA. Each cell line was used within 10 passages from its archival passage number in order to minimize any long term cell culture effects. Gene expression analysis of bladder cell lines was carried out as previously described using the HG-U133A GeneChip® array (Affymetrix®, Santa Clara, Calif., USA) (6, 7). The image file was analyzed with RMA, to obtain the expression intensity values of the microarray data (8).
Cell lines were seeded in 96-well cell culture plates (Costar) at a density of 1000 cells/well. 24 hours later, cells were exposed to the drugs diluted in RPMI-1640 medium, containing 10% FBS, concentration that is required by more than 75% of cell lines for their normal growth, at a total volume of 200 μL. Each drug dose was plated in triplicate, and the experiment was repeated four to seven times. The doses for Cisplatin were 200, 400, 800, 1600, 3200, and 6400 ng/ml; for Paclitaxel 0.0001, 0.001, 0.002, 0.005, 0.01, and 0.1 μM; for Gemcitabine 0.001, 0.01, 0.1, 1, 10, 100 μM.
From the dose-response data, log 10(GI50) values (log base 10 of concentration required to inhibit cell growth by 50% in comparison with untreated control) were estimated for all the cell lines by deriving log(dose) concentration curves on cell count percents as described below. To estimate the GI50 values reliably, we computed Euclidean distances among all replicated experiments, and excluded outlying experiments if they were in the top 20% among all measured distances. This percent was determined heuristically based on the general observations in experimental quality control. […] Subsequently, the data were fitted to a sigmoidal function such as the following nonlinear regression model for estimating each cell line's dose response curve:
Percent=1−1/(1+exp(−(log 10(dose)−β)/α),
where α and β determine the shape of a fitted line.
This sigmoidal regression function was used to capture the natural shapes of drug dose responses. Thus, the estimated β is the predicted log 10(GI50) value, the expected log concentration achieving the cell count reduction of 50%. Similarly, log 10(GI30), and log 10(GI70) values, i.e. the concentrations required to inhibit cell growth by 30%, and 70% in comparison with untreated control, were also calculated.
Cell line drug sensitivity was classified using the GI estimates and application of a criterion dose (CR) concept. […] Using these CR concentrations, each cell line was defined as sensitive if log 10(GI50)≦CR; strongly sensitive if […], or resistant if log 10(GI70)>CR, and intermediate if log 10(GI50)>CR and log 10(GI70)<CR.
To approach the development of molecular models of chemotherapeutic sensitivity in human bladder cancer, we focused on a well-defined series of 40 urothelial cell lines for which we could measure sensitivity to relevant chemotherapeutic agents in vitro and correlate these responses with global measurements of gene expression.

[2] = system: BLA-40 human bladder cancer cell lines; assay: In vitro growth inhibition (GI50) in BLA-40 cells, 48 hours, as for NCI-60; assay type: cell-based; conditions: for potency in BLA-40 compared with NCI-60 tissue panels: BLA-40 vs nine tissue-specific panels of NCI-60
Source text: Sensitivity of human bladder cancer cells to cisplatin, paclitaxel and NSC 637993. To test the predictive models, we performed in vitro drug response experiments, and then determined GI50 values for each bladder cell line for cisplatin, paclitaxel, and compound NSC 637993 (Supplementary Materials and Methods). Sensitivity to the agents was generated by a dose response experiments carried out on the BLA-40 cells as described for the NCI-60. The final concentrations of cisplatin used were 200, 400, 800, 1600, 3200, and 6400 ng/ml; those of Paclitaxel and NSC 637993 were 0.1, 1, 2, 5, 10, and 100 nM. In each case, the cells were plated on Day 0, exposed to drug for 48 hours) at 37° C., and then assayed. Each experiment was repeated three to five independent times, and the results were expressed as a fraction of the difference between initial cell count and untreated control. Log 10(GI50) values were then estimated from the resulting dose-response curves. Bladder cell lines were defined as sensitive or resistant as described above for the NCI-60 panel. […]
In the first application of the COXEN algorithm, for example, Cell Sets 1 and 2 were the NCI-60 and BLA-40 cell panels, respectively; the Step 1 drug activities were those assessed by DTP in the NCI-60 using a 48-hour sulforhodamine B assay; the “molecular characteristic” in Steps 2 and 4 was transcript expression level, as assessed using Affymetrix HG-U133A microarrays; the algorithm in Step 3 was “Significance Analysis of Microarrays (SAM)” or two-sample t-test; Step 5 was a novel “co-expression extrapolation” algorithm; Step 6 was another novel algorithm, “Misclassification-Penalized Posterior” (MiPP), which we recently introduced for selection of the best mathematical “models” for the prediction; and applying the prediction models obtained in Step 6, independent testing of the predictions on BLA-40 cells was performed, mimicking the way the assay for the NCI-60 by DTP.

breast cancer = conditions: cited from earlier work
bladder cancer = conditions: cited from earlier work
breast cancer patients = conditions: 24 patients, four cycles of neoadjuvant docetaxel, original study; cited from earlier work
[3] = system: estrogen receptor-positive breast cancer patients; assay: TAM-60 breast cancer clinical trial, time to recurrence classification; assay type: in vivo, human; conditions: of 60 patients
Method: In the tamoxifen clinical trial (TAM-60), 60 postmenopausal breast cancer patients with estrogen receptor-positive tumors were treated and followed for up to 180 months. Genome-wide expression profiling was performed on the primary tumors using a customized cDNA microarray platform.

Row | SMILES | criterion dose (CR) [1] | number of resistant cell lines [1] | number of sensitive cell lines [1] | also measured
1 | Nc1ccn([C@@H]2O[C@H](CO)[C@@H](O)C2(F)F)c(=O)n1 [Gemcitabine] | 0.1 µM | 11 | 8 | –
2 | CCN(CC)CCNc1ccc2nc(C)n3c4ccc(OC)cc4c(=O)c1c23 [NSC 637993] | – | – | – | proportion of BLA-40 cell types with GI50 less than 10-6M ([2]; BLA-40 panel): > 60%; potency in BLA-40 compared with NCI-60 tissue panels [2]: more effective at a lower dose (1×10^−6M) in bladder cancer; potency in BLA-40 compared with NCI-60 tissue panels ([2]; listed as NSC637993): more potent overall in the BLA-40 bladder cancers than in any of the organ-of-origin types included in the NCI-60
3 | CC(=O)O[C@H]1C(=O)[C@@]2(C)[C@H]([C@H](OC(=O)c3ccccc3)[C@]3(O)C[C@H](OC(=O)[C@H](O)[C@@H](NC(=O)c4ccccc4)c4ccccc4)C(C)=C1C3(C)C)[C@]1(OC(C)=O)CO[C@@H]1C[C@@H]2O [Paclitaxel] | 0.005 µM | 11 | 17 | –
4 | N.N.[Cl][Pt][Cl] [cisplatin] | 400 ng/mL | 11 | 16 | –
5 | O=c1[nH]cc(F)c(=O)[nH]1 [compound 19893] | – | – | – | Clinical response rate (breast cancer): 44.4; Clinical response (bladder cancer): 23.1
6 | CC(=O)O[C@@]12CO[C@@H]1C[C@H](O)[C@@]1(C)C(=O)[C@H](O)C3=C(C)[C@@H](OC(=O)[C@H](O)[C@@H](NC(=O)OC(C)(C)C)c4ccccc4)C[C@@](O)([C@@H](OC(=O)c4ccccc4)[C@H]21)C3(C)C [docetaxel] | – | – | – | number of non-responder patients (breast cancer patients): 13; number of responder patients (breast cancer patients): 11
7 | CC/C(=C(\c1ccccc1)c1ccc(OCCN(C)C)cc1)c1ccccc1 [tamoxifen] | – | – | – | number of non-responders (recurrence <50 months) [3]: 16; number of responders (long-term survival >130 months) [3]: 11
